# Measured values taken from ChEMBL document CHEMBL4428125, “8-Substituted 1,3-dimethyltetrahydropyrazino[2,1-f]purinediones: Water-soluble adenosine receptor antagonists and monoamine oxidase B inhibitors” (Bioorg Med Chem, 2016).
# How the values were obtained:
# Adenosine receptor A1 = target: T1, Adenosine receptor A1 (Homo sapiens, UniProt P30542); assay: Displacement of [3H]CCPA from human A1 receptor expressed in CHO cell membrane by liquid scintillation counting method; type: cell membranes
# T1 sequence (P30542 whole entry): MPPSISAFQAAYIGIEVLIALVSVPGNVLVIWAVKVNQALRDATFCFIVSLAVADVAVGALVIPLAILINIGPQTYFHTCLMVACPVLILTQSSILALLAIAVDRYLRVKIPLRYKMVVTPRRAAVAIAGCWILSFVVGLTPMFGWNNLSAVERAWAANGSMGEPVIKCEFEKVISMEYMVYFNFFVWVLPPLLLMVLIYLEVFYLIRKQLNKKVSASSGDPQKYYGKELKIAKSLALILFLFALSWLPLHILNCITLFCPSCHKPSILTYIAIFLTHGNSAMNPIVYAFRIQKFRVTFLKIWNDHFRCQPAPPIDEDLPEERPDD
# [1] = target: T2, Amine oxidase [flavin-containing] A (Homo sapiens, UniProt P21397); assay: Inhibition of recombinant human MAO-A expressed in baculovirus infected BTI insect cells preincubated for 30 mins followed by addition of p-tyramine as substrate measured over 45 mins by Amplex Red MAO assay
# T2 sequence (P21397 whole entry): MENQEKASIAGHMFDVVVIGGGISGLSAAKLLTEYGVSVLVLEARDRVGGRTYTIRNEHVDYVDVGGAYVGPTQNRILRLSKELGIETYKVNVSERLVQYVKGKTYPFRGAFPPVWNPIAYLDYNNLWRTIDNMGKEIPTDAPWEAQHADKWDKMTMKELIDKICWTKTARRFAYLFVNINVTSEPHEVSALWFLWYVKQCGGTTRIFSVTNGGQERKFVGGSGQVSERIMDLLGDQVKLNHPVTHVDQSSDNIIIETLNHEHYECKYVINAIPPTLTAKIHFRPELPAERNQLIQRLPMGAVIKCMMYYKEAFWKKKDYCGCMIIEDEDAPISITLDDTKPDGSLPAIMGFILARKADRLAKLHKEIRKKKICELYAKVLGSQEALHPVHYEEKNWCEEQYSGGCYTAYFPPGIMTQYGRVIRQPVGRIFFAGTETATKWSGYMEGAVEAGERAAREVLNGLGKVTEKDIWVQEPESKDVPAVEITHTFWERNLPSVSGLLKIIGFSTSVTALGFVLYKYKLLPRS
# [2] = target: T2, Amine oxidase [flavin-containing] A; assay: Inhibition of recombinant human MAO-A expressed in baculovirus infected BTI insect cells at 10 uM preincubated for 30 mins followed by addition of p-tyramine as substrate measured over 45 mins by Amplex Red MAO assay relative to control; conditions: 0.75 h
# [3] = target: T3, Amine oxidase [flavin-containing] B (Homo sapiens, UniProt P27338); assay: Inhibition of recombinant human MAO-B expressed in baculovirus infected BTI insect cells preincubated for 30 mins followed by addition of p-tyramine as substrate measured over 45 mins by Amplex Red MAO assay
# T3 sequence (P27338 whole entry): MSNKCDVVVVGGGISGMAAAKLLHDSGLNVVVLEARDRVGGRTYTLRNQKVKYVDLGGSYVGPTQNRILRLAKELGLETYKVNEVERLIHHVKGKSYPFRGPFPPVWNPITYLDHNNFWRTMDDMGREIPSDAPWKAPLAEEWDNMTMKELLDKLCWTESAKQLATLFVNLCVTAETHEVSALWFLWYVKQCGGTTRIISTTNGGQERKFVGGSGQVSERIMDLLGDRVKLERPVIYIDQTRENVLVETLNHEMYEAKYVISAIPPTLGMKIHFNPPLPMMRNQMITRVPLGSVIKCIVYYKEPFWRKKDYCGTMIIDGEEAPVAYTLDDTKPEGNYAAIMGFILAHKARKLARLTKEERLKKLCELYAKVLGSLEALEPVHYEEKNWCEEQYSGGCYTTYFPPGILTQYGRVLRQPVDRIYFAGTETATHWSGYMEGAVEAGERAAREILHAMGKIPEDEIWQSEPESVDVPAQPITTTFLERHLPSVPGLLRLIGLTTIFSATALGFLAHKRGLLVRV
# [4] = target: T4, Amine oxidase [flavin-containing] B (Rattus norvegicus, UniProt P19643); assay: Inhibition of recombinant rat MAO-B preincubated for 30 mins followed by addition of p-tyramine as substrate measured over 45 mins by Amplex Red MAO assay
# T4 sequence (P19643 whole entry): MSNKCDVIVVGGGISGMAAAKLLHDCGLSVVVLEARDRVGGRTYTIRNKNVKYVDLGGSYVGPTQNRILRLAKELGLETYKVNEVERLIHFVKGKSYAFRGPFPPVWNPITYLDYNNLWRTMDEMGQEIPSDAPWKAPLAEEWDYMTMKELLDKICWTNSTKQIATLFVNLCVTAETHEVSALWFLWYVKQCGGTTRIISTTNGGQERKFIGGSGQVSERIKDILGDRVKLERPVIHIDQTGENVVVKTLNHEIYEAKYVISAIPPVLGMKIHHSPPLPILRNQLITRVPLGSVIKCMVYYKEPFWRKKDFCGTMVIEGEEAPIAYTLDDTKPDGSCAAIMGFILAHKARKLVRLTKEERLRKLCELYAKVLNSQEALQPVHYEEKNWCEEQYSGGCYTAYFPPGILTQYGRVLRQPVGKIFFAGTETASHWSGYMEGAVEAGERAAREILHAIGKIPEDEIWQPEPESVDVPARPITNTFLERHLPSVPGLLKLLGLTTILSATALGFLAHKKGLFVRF
# Adenosine receptor A2b = target: T5, Adenosine receptor A2b (Homo sapiens, UniProt P29275); assay: Displacement of [3H]PSB-603 from human A2B receptor expressed in CHO cell membrane; type: cell membranes
# T5 sequence (P29275 whole entry): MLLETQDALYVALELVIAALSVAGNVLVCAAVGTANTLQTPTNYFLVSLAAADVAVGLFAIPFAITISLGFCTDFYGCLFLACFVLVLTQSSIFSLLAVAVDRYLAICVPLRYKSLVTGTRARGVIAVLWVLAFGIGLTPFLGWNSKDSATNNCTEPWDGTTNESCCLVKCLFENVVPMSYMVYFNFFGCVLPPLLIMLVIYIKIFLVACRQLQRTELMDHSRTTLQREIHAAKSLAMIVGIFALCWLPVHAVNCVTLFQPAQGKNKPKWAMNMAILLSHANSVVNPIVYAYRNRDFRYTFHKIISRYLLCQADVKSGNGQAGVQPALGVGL
# Adenosine receptor A3 = target: T6, Adenosine receptor A3 (Homo sapiens, UniProt P0DMS8); assay: Displacement of [3H]PSB-11 from human A3 receptor expressed in CHO cell membrane by liquid scintillation counting method relative to control; type: cell membranes
# T6 sequence (P0DMS8 whole entry): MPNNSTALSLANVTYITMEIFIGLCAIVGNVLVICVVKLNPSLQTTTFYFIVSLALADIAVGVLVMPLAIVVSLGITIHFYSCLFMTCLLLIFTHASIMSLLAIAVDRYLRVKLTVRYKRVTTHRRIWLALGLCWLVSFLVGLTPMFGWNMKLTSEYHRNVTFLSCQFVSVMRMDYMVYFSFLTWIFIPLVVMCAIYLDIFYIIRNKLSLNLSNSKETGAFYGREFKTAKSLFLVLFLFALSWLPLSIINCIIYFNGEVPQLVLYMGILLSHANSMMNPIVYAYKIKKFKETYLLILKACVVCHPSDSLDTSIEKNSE
Ki (Adenosine receptor A1),IC50 [1],inhibition at 10 µM [2],IC50 [3],IC50 [4],Ki (Adenosine receptor A2b),Ki (Adenosine receptor A3),SMILES
393 nM,> 10000 nM,14%,210 nM,100 nM,> 300 nM,14000 nM,Cn1c(=O)c2c(nc3n2CCN([C@@H]2CCCc4ccccc42)C3)n(C)c1=O
≥ 10000 nM,> 10000 nM,4%,385 nM,251 nM,> 1000 nM,> 10000 nM,Cn1c(=O)c2c(nc3n2CCN(c2cccc(Cl)c2)C3)n(C)c1=O
